# Results as given in patent publication US11807625B2, “Capsid inhibitors for the prevention of HIV” (Gilead Sciences, Inc., priority 2019, dated 2023).
# “And” between values parts separate entries of the source, which are not always exact repeats. Equal values may be shown once.
# How the values were obtained:
# [1] = Plasma concentration vs. time profile of Compound Ib in rhesus after single subcutaneous dose (SHIV challenge study); format: in vivo, rhesus macaques
# Method: Mean±s.d. values are shown.
# PK analysis details: Rhesus plasma samples were stored frozen at −80° C. and analyzed using high resolution mass spectrometry (HRMS) with electrospray ionization in the positive mode. Quantification was performed using an accurate mass ([M+H]+) of 958.1853 for a compound of Formula (Ib) (“Compound Ib”) and 758.3270 for the internal standard, respectively.
# SHIV = assay: PrEP efficacy in rhesus repeat intrarectal SHIV challenge model, plasma viral load by qRT-PCR; format: in vivo, rhesus macaques; conditions: for Plasma SHIV: rhesus, individual animals
# Method: The PrEP efficacy a compound of Formula (Ib) in rhesus was evaluated using a repeat intrarectal (IR) challenge model.
# This study also established a correlation between exposure and protection using a single high-dose administration of a compound of Formula (Ib) vs. placebo, followed by multiple weekly IR challenges until infection occured. In this study, multiple challenges overlapped with clinically-relevant drug levels. The supratherapeutic IQs (inhibitory quotients) were assessed to maximize protection and achieve proof-of-concept in case rectal tissue levels were much lower than in plasma. Lower doses of a compound of Formula (Ib), or a pharmaceutically acceptable salt thereof, were assessed to capture more challenges at clinically relevant exposures, reducing the number of IR challenges, and facilitating a drug washout phase. The washout phase lasted for at least 20 weeks. In some embodiments, the washout phase lasted for 20-25 weeks. The washout phase of these studies was important to enable the administered drug concentrations to decline sufficiently below those that were expected to be clinically suppressive in order to confirm that animals that remained aviremic in the study did so because they were protected from infection as opposed to being infected following one or more of the viral challenges but remaining suppressed by prolonged therapeutic concentrations of the long-acting drug in plasma and/or tissue compartments.
# FIG. 3 is a schematic of the study using a compound of Formula (Ib) in adult rhesus macaques (1:1 male/female ratio). Eight animals per group were treated with a single dose of placebo control, 150 mg/kg of a compound of Formula (Ib) (“Compound 1b”) or 300 mg/kg of a compound of Formula (Ib) (“Compound 1b”) on week 0 and allowed to wash out over time. All animals were challenged intrarectally with SHIV weekly beginning on week 1 until detectable viremia or up to a maximum of 15 challenges. SHIV challenge titer was increased over time from 10 TCID50 to 100 TCID50 through week 15 as depicted. Animal SHIV infection rate was assessed by weekly plasma viral load monitoring by qRT-PCR through study week 20. The protective efficacy of a compound of Formula (Ib) (“Compound 1b”) was established by comparing to infection rate observed in the placebo control group using the Cox proportional hazards model analysis.
# Viral infection was scored one week after each SHIV challenge using a quantitative RT-PCR assay. Infected animals were defined as having a viral load >200 copies per mL plasma and the corresponding plasma viral load values are bolded.
# Viral load measurements details: RNA was extracted from plasma using a QIAcube HT and the QIAcube 96 Cador pathogen HT kit (Qiagen). Gag RNA standards were generated using the AmpliCapMax™ T7 High Yield Message Maker Kit (Cell Script) and purified with RNA clean and concentrator kit (Zymo Research). Log dilutions of RNA were included with each assay run. Reverse transcription of both standards and samples was performed using Superscript III VILO (Invitrogen). Quantitative PCR was performed using the Quantstudio 6 Flex system with TaqMan™ Fast Advanced Master Mix (Applied Biosystems). Primer sequences were F-[…] (SEQ ID NO. 1) and R-[…] (SEQ ID NO. 2). The probe sequence was […] (SEQ ID NO. 3), and probe was labeled with FAM and BHQ (Biosearch Technologies). Viral loads were calculated as gag copies per mL.
# SHIV-162P3 = assay: 7-day antiviral assay (p24 ELISA endpoint) in rhesus PBMCs infected with SHIV-162P3; format: cell-based
# Method: (§1) The mean 95% effective concentration (EC95) of 1.91±0.16 nM for a compound of Formula (Ib) (“Compound Ib”) was determined using a 7-day antiviral assay (p24 ELISA endpoint) in rhesus peripheral blood mononuclear cells (PBMCs) infected with SHIV-162P3. A competitive equilibrium dialysis assay was used to quantify rhesus plasma protein binding to Compound Ib, resulting in an inhibitory quotient (IQ) equal to Compound Ib plasma concentrations divided by a mean rhesus plasma protein-binding-adjusted EC95 (paEC95) value of 30.2±2.5 nM.
# rhesus plasma protein = assay: Competitive equilibrium dialysis (EQDS) assay, rhesus plasma protein binding; format: in vitro ADME; conditions: EC95 adjusted for rhesus plasma protein binding (competitive equilibrium dialysis)
# Method: as §1
# Equilibrium dialysis shift (EQDS) assay details: Rhesus plasma protein binding to a compound of Formula (Ib) (“Compound Ib”) was determined by competitive equilibrium dialysis. Rhesus plasma (10%) was spiked with Compound Ib (2 μM) and blank RPMI cell culture medium containing 2% fetal bovine serum (CCM) were placed into opposite sides of assembled dialysis cells, and incubations were performed in triplicate. After a 24-h equilibration period at 37° C., samples were corrected for the matrix effect, quenched, and quantified by liquid chromatography tandem mass spectrometry (LC-MS/MS) with electrospray ionization in positive mode and multiple-reaction monitoring (MRM). The fold change value in 100% rhesus plasma was then calculated using the plasma/CCM ratio after correcting for the sample dilution factor and the percent free fraction in the matrix.
compound,measurement,setting,value
"CC(C)(C#Cc1ccc(-c2ccc(Cl)c3c(NS(=O)(=O)C4CC4)nn(CC(F)F)c23)c([C@H](Cc2cc(F)cc(F)c2)NC(=O)Cn2nc(C(F)F)c3c2C(F)(F)[C@@H]2C[C@H]32)n1)S(C)(=O)=O [Compound Ib, N—((S)-1-(3-(4-chloro-3-(cyclopropanesulfonamido)-1-(2,2-difluoroethyl)-1H-indazol-7-yl)-6-(3-methyl-3-(methylsulfonyl)but-1-yn-1-yl)pyridin-2-yl)-2-(3,5-difluorophenyl)ethyl)-2-((3b S,4aR)-3-(difluoromethyl)-5,5-difluoro-3b,4,4a,5-tetrahydro-1H-cyclopropa[3,4]cyclopenta[1,2-c]pyrazol-1-yl)acetamide]",Plasma Compound Ib Concentrations,"[1]; 150 mg/kg SC day 0, individual animals, study week 1, SHIV dose 10 x TCID50",3112 nM and 2516 nM and 762 nM and 882 nM
same,Plasma Compound Ib Concentrations,"[1]; 150 mg/kg SC day 0, individual animals, study week 2, SHIV dose 10 x TCID50",2108 nM and 2027 nM and 1059 nM and 1219 nM
same,Plasma Compound Ib Concentrations,"[1]; 150 mg/kg SC day 0, individual animals, study week 3, SHIV dose 10 x TCID50",750 nM and 1371 nM and 334 nM and 209 nM
same,Plasma Compound Ib Concentrations,"[1]; 150 mg/kg SC day 0, individual animals, study week 4, SHIV dose 10 x TCID50",538 nM and 448 nM and 225 nM and 165 nM
same,Plasma Compound Ib Concentrations,"[1]; 150 mg/kg SC day 0, individual animals, study week 5, SHIV dose 10 x TCID50",333 nM and 449 nM and 141 nM and 113 nM
same,Plasma Compound Ib Concentrations,"[1]; 150 mg/kg SC day 0, individual animals, study week 6, SHIV dose 10 x TCID50",164 nM and 313 nM and 82 nM and 78 nM
same,Plasma Compound Ib Concentrations,"[1]; 150 mg/kg SC day 0, individual animals, study week 7, SHIV dose 10 x TCID50",139 nM and 250 nM and 69 nM and 46 nM
same,Plasma Compound Ib Concentrations,"[1]; 150 mg/kg SC day 0, individual animals, study week 8, SHIV dose 10 x TCID50",118 nM and 160 nM and 80 nM and 56 nM and 82 nM
same,Plasma Compound Ib Concentrations,"[1]; 150 mg/kg SC day 0, individual animals, study week 9, SHIV dose 33 x TCID50",54 nM and 140 nM and 58 nM and 14 nM
same,Plasma Compound Ib Concentrations,"[1]; 300 mg/kg SC day 0, individual animals, study week 1, SHIV dose 10 x TCID50",5528 nM and 3174 nM and 2251 nM and 1572 nM and 7818 nM and 2215 nM and 1944 nM
same,Plasma Compound Ib Concentrations,"[1]; 300 mg/kg SC day 0, individual animals, study week 2, SHIV dose 10 x TCID50",1944 nM and 2466 nM and 1332 nM and 2066 nM and 3983 nM and 1949 nM and 1830 nM
same,Plasma Compound Ib Concentrations,"[1]; 300 mg/kg SC day 0, individual animals, study week 3, SHIV dose 10 x TCID50",942 nM and 1003 nM and 894 nM and 508 nM and 1654 nM and 632 nM and 742 nM
same,Plasma Compound Ib Concentrations,"[1]; 300 mg/kg SC day 0, individual animals, study week 4, SHIV dose 10 x TCID50",863 nM and 664 nM and 530 nM and 359 nM and 725 nM and 416 nM and 362 nM
same,Plasma Compound Ib Concentrations,"[1]; 300 mg/kg SC day 0, individual animals, study week 5, SHIV dose 10 x TCID50",402 nM and 487 nM and 395 nM and 266 nM and 523 nM and 268 nM and 377 nM
same,Plasma Compound Ib Concentrations,"[1]; 300 mg/kg SC day 0, individual animals, study week 6, SHIV dose 10 x TCID50",370 nM and 282 nM and 382 nM and 161 nM and 242 nM and 273 nM and 350 nM
same,Plasma Compound Ib Concentrations,"[1]; 300 mg/kg SC day 0, individual animals, study week 7, SHIV dose 10 x TCID50",180 nM (2×) and 261 nM and 339 nM and 132 nM and 158 nM and 307 nM
same,Plasma Compound Ib Concentrations,"[1]; 300 mg/kg SC day 0, individual animals, study week 8, SHIV dose 10 x TCID50",209 nM and 240 nM and 319 nM and 140 nM and 378 nM and 155 nM and 226 nM
same,Plasma Compound Ib Concentrations,"[1]; 300 mg/kg SC day 0, individual animals, study week 9, SHIV dose 33 x TCID50",127 nM and 131 nM and 83 nM and 88 nM and 177 nM and 104 nM and 122 nM
same,concentration at 12 weeks,"[1]; both sexes, rhesus monkey, plasma, subcutaneous, 300 mg/kg, 300 mg/kg SC day 0, individual animals, study week 12, SHIV dose 100 x TCID50, read-out: Plasma Compound Ib Concentrations",83 nM
same,concentration at 15 weeks,"[1]; both sexes, rhesus monkey, plasma, subcutaneous, 300 mg/kg, 300 mg/kg SC day 0, individual animals, study week 15, SHIV dose 100 x TCID50, read-out: Plasma Compound Ib Concentrations",45 nM
same,Plasma SHIV,"SHIV; 150 mg/kg SC day 0, study week 1, intrarectal SHIV dose 10 x TCID50",<200 copies/mL
same,Plasma SHIV,"SHIV; 150 mg/kg SC day 0, study week 2, intrarectal SHIV dose 10 x TCID50",<200 copies/mL
same,Plasma SHIV,"SHIV; 150 mg/kg SC day 0, study week 3, intrarectal SHIV dose 10 x TCID50",<200 copies/mL
same,Plasma SHIV,"SHIV; 150 mg/kg SC day 0, study week 4, intrarectal SHIV dose 10 x TCID50",<200 copies/mL
same,Plasma SHIV,"SHIV; 150 mg/kg SC day 0, study week 5, intrarectal SHIV dose 10 x TCID50",<200 copies/mL
same,Plasma SHIV,"SHIV; 150 mg/kg SC day 0, study week 6, intrarectal SHIV dose 10 x TCID50",<200 copies/mL
same,Plasma SHIV,"SHIV; 150 mg/kg SC day 0, study week 7, intrarectal SHIV dose 10 x TCID50",<200 copies/mL
same,Plasma SHIV,"SHIV; 150 mg/kg SC day 0, study week 8, intrarectal SHIV dose 10 x TCID50",<200 copies/mL
same,Plasma SHIV,"SHIV; 150 mg/kg SC day 0, study week 9, intrarectal SHIV dose 33 x TCID50",<200 copies/mL
same,Plasma SHIV,"SHIV; 150 mg/kg SC day 0, study week 10, intrarectal SHIV dose 33 x TCID50",<200 copies/mL
same,Plasma SHIV,"SHIV; 300 mg/kg SC day 0, study week 1, intrarectal SHIV dose 10 x TCID50",<200 copies/mL
same,Plasma SHIV,"SHIV; 300 mg/kg SC day 0, study week 2, intrarectal SHIV dose 10 x TCID50",<200 copies/mL
same,Plasma SHIV,"SHIV; 300 mg/kg SC day 0, study week 3, intrarectal SHIV dose 10 x TCID50",<200 copies/mL
same,Plasma SHIV,"SHIV; 300 mg/kg SC day 0, study week 4, intrarectal SHIV dose 10 x TCID50",<200 copies/mL
same,Plasma SHIV,"SHIV; 300 mg/kg SC day 0, study week 5, intrarectal SHIV dose 10 x TCID50",<200 copies/mL
same,Plasma SHIV,"SHIV; 300 mg/kg SC day 0, study week 6, intrarectal SHIV dose 10 x TCID50",<200 copies/mL
same,Plasma SHIV,"SHIV; 300 mg/kg SC day 0, study week 7, intrarectal SHIV dose 10 x TCID50",<200 copies/mL
same,Plasma SHIV,"SHIV; 300 mg/kg SC day 0, study week 8, intrarectal SHIV dose 10 x TCID50",<200 copies/mL
same,Plasma SHIV,"SHIV; 300 mg/kg SC day 0, study week 9, intrarectal SHIV dose 33 x TCID50",<200 copies/mL
same,Plasma SHIV,"SHIV; 300 mg/kg SC day 0, study week 10, intrarectal SHIV dose 33 x TCID50",<200 copies/mL
same,infection in relation to Compound Ib plasma exposure,"SHIV; 150 or 300 mg/kg single SC, weekly intrarectal challenges with escalating SHIV doses, FIGS. 6B, 6C",became infected only after the viral challenges were administered at Compound Ib plasma exposures well below the clinical IQ exposure range of 4 to 9
same,mean 95% effective concentration (EC95),SHIV-162P3,1.91 ± 0.16 nM
same,mean rhesus plasma protein-binding-adjusted EC95 (paEC95),rhesus plasma protein,30.2 ± 2.5 nM
